This is an account of results in US12448371B2, “Inhibitor compounds” (Cincera Therapeutics Pty Ltd, priority 2019, dated 2025).

A word on the IC50: it is the concentration that inhibits the measured activity by half. What is called inhibition is the change of the read-out against control, counted positive when it falls. A low value points to little suppression.

This assay has as its target T1, Des1 (h) (Homo sapiens, UniProt O15121).
T1 construct: endogenous in cells; host or cells: parental Jurkat cells
T1 sequence (O15121 1-323): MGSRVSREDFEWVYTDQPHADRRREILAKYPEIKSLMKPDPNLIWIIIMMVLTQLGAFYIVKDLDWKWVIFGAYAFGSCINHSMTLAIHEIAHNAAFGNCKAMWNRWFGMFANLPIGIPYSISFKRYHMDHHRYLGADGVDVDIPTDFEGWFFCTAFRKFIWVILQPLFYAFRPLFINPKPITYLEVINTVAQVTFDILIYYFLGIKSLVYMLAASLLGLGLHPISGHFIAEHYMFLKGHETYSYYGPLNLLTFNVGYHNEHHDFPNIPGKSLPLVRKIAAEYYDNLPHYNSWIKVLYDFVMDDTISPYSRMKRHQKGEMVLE
The experiment in a line: Measurement of Dihydroceramide Desaturase-1 (Des-1) activity in intact Jurkat cells labeled with DhCer-C6-NBD (HPLC). Type of assay: cell-based. The note with it: for IC50: intact Jurkat cells, given as concentration range, or <X / >X if measured at one concentration X only, read-out: Des1 (h) Jurkat IC50. Here is the method:
Measurement of Dihydroceramide Desaturase-1 (Des-1) Activity
Compounds were assessed for Des-1 inhibitory activity. Measurement of Des1 activity was performed by HPLC using intact Jurkat cells labeled with DhCer-C6-NBD as described previously (Munoz-Olaya, J. M. et al. ChemMedChem 2008, 3, 946-953) with modifications to enhance sensitivity and reproducibility. These modifications included the use of parental Jurkat cells, 0.5% serum in the culture media, and cell harvesting via centrifugation at 500×g to maximise ceramide extraction. Extracted samples (50 ul) were analysed on a Waters HPLC coupled to a fluorescence detector using a 30 cm C18 reverse-phase column eluted with 1 ml/min 20% H2O and 80% acetonitrile, both with a 0.1% of trifluoroacetic acid. NBD-labelled substrate and product were quantitated with an excitation and emission wavelengths of 465 nm and 530 nm, respectively.

On to `O=C(NO)c1ccc(Nc2ncc(-c3ccc(C(F)(F)F)cc3)o2)cn1` [Example 2, N-Hydroxy-5-((5-(4-(trifluoromethyl)phenyl)oxazol-2-yl)amino)picolinamide], for which the IC50 was 100 to 1000 nM. In the case of `Cl.N=C(NO)c1ccc(Nc2nnc(-c3ccc(C(F)(F)F)cn3)o2)cn1` [Example 69, N′-Hydroxy-5-((5-(5-(trifluoromethyl)pyridin-2-yl)-1,3,4-oxadiazol-2-yl)amino)picolinimidamide], the half-maximal inhibitory concentration (IC50) was greater than 1000 nM. Under “Jurkat cells, 1 μM”, the “% inhibition of Des1 at 1 μM” value is “no inhibition”. Take `O=C(NC[C@@H](O)CO)c1ccc(Nc2ncc(-c3ccc(C(F)(F)F)cn3)o2)cn1` [Compound 95, (R)—N-(2,3-dihydroxypropyl)-5-((5-(5-(trifluoromethyl)pyridin-2-yl)oxazol-2-yl)amino)picolinamide]: the IC50 lay within 10 to 100 nM.

Regarding `N/C(=N\O)c1ncc(Nc2ncn(-c3ccc(C(F)(F)F)cc3)n2)cc1O` [Example 31, N′,3-Dihydroxy-5-((1-(4-(trifluoromethyl)phenyl)-1H-1,2,4-triazol-3-yl)amino)picolinimidamide], the half-maximal inhibitory concentration (IC50) is less than 1000 nM. For `Cc1cc(Nc2ncc(-c3ccc(C(F)(F)F)cc3)o2)cnc1C(=O)N(C)O` [Example 21, N-Hydroxy-N,3-dimethyl-5-((5-(4-(trifluoromethyl)phenyl)oxazol-2-yl)amino)picolinamide], the half-maximal inhibitory concentration (IC50) was greater than 1000 nM. Under “Jurkat cells, 1 μM”, this molecule registered an inhibition at 1 µM of 38%. Regarding `CCN(O)C(=O)c1ccc(Nc2ncc(-c3ccc(C(F)(F)F)cc3)o2)cn1` [Example 32, N-Ethyl-N-hydroxy-5-((5-(4-(trifluoromethyl)phenyl)oxazol-2-yl)amino)picolinamide], the IC50 was less than 1000 nM.

Turning to `N/C(=N\O)c1ncc(Nc2ncc(-c3ccc(C(F)(F)F)cc3)o2)cc1O` [Example 26, N′,3-Dihydroxy-5-((5-(4-(trifluoromethyl)phenyl)oxazol-2-yl)amino)picolinimidamide], the IC50 lay in the range of 1 to 10 nM. With `O=C(NC[C@@H](O)CO)c1ccc(Nc2ncc(-c3ccc(F)cc3)o2)cn1` [Compound 98, (R)—N-(2,3-dihydroxypropyl)-5-((5-(4-fluorophenyl)oxazol-2-yl)amino)picolinamide], the “% inhibition of Des1 at 0.1 μM” value (Jurkat cells) stood at 70%. For `O=c1cc(Nc2ncc(-c3ccc(C(F)(F)F)cn3)o2)ccn1O` [Example 68, 1-Hydroxy-4-((5-(5-(trifluoromethyl)pyridin-2-yl)oxazol-2-yl)amino)pyridin-2(1H)-one], the IC50 is less than 1000 nM. Turning to `N/C(=N\O)c1cnc(Nc2nc(-c3ccc(C(F)(F)F)cc3)no2)cn1` [Example 83, N′-Hydroxy-5-((3-(4-(trifluoromethyl)phenyl)-1,2,4-oxadiazol-5-yl)amino)pyrazine-2-carboximidamide], the IC50 was less than 1000 nM.

Take `O=C(NO)c1ncc(Nc2nc(-c3ccc(Cl)cc3)cs2)cn1` [Example 9, 5-([4-(4-Chlorophenyl)-1,3-thiazol-2-yl]amino)-N-hydroxypyrimidine-2-carboxamide]: the IC50 was greater than 10000 nM. Further, the “% inhibition of Des1 at 10 μM” value (Jurkat cells) amounted to 26%. As for `NNC(=O)c1ccc(Nc2ncc(-c3ccc(C(F)(F)F)cc3)o2)cn1` [Compound 92, 5-((5-(4-(Trifluoromethyl)phenyl)oxazol-2-yl)amino)picolinohydrazide], the IC50 was in the range of 100 to 1000 nM. Consider `N=C(NO)c1ccc(Nc2ncc(-c3ccc(F)cn3)o2)nn1` [Example 49, 6-((5-(5-Fluoropyridin-2-yl)oxazol-2-yl)amino)-N′-hydroxypyridazine-3-carboximidamide], for which the concentration for half-maximal inhibition (IC50) is less than 100 nM. On to `N/C(=N\O)c1ccc(Nc2ncc(-c3ccc(C(F)(F)F)nc3)o2)cn1` [Example 59, N′-Hydroxy-5-((5-(6-(trifluoromethyl)pyridin-3-yl)oxazol-2-yl)amino)picolinimidamide], for which the concentration for half-maximal inhibition (IC50) is less than 1000 nM. `O=C(NC[C@@H](O)CO)c1ccc(Nc2ncc(-c3ccc(C(F)(F)F)cc3)o2)cn1` [Example 36, (R)—N-(2,3-Dihydroxypropyl)-5-((5-(4-(trifluoromethyl)phenyl)oxazol-2-yl)amino)picolinamide]: the IC50 lay in the range of 1 to 10 nM. As for `O=C(c1ccc(Nc2ncc(-c3ccc(C(F)(F)F)cc3)o2)cn1)N(O)CCO` [Example 22, N-Hydroxy-N-(2-hydroxyethyl)-5-((5-(4-(trifluoromethyl)phenyl)oxazol-2-yl)amino)picolinamide], the “% inhibition of Des1 at 10 μM” value (Jurkat cells) turned out to be 81%.

For the molecule `O=C(NO)c1ccc(Nc2ncc(-c3ccc(C(F)(F)F)cc3)o2)nn1` [Example 11, N-Hydroxy-6-((5-[4-(trifluoromethyl)phenyl]-1,3-oxazol-2-yl)amino)pyridazine-3-carboxamide], the IC50 fell in the range of 100 to 1000 nM. In the case of `O=C(NC[C@@H](O)CO)c1ccc(Nc2ncc(-c3ccc(C(F)(F)F)c(F)c3)o2)cn1` [Example 44, (R)—N-(2,3-Dihydroxypropyl)-5-((5-(3-fluoro-4-(trifluoromethyl)phenyl)oxazol-2-yl)amino)picolinamide], the IC50 was 1 to 10 nM. As to `N/C(=N\O)c1cnc(Nc2nc(-c3ccc(C(F)(F)F)cn3)no2)cn1` [Example 85, N′-hydroxy-5-((3-(5-(trifluoromethyl)pyridin-2-yl)-1,2,4-oxadiazol-5-yl)amino)pyrazine-2-carboximidamide], the IC50 is greater than 1000 nM. The same molecule gave an inhibition at 1 µM (Jurkat cells, 1 μM) of 15%.

Take `N=C(NO)c1ccc(Nc2ncc(-c3ccc(F)cc3)o2)nn1` [Example 47, 6-((5-(4-Fluorophenyl)oxazol-2-yl)amino)-N′-hydroxypyridazine-3-carboximidamide]: the IC50 is less than 100 nM. Regarding `N/C(=N\O)c1ncc(Nc2ncc(-c3ccc(C(F)(F)F)cn3)o2)cn1` [Example 58, N′-Hydroxy-5-((5-(5-(trifluoromethyl)pyridin-2-yl)oxazol-2-yl)amino)pyrimidine-2-carboximidamide], the IC50 was greater than 1000 nM. For the same molecule, testing at 1 µM (Jurkat cells, 1 μM) gave an inhibition of 40%. Take `ONc1ccc(Nc2ncc(-c3ccc(C(F)(F)F)cc3)o2)cn1` [Example 4, N-(6-(Hydroxyamino)pyridin-3-yl)-5-(4-(trifluoromethyl)phenyl)oxazol-2-amine]: the IC50 fell in the range of 1000 to 10000 nM. As for `Cn1nc(-c2ccc(C(F)(F)F)cn2)cc1Nc1ccc(/C(N)=N\O)nc1` [Example 76, N′-Hydroxy-5-((1-methyl-3-(5-(trifluoromethyl)pyridin-2-yl)-1H-pyrazol-5-yl)amino)picolinimidamide], the concentration for half-maximal inhibition (IC50) is greater than 1000 nM. Under “Jurkat cells, 1 μM”, this molecule came in with an inhibition at 1 µM of 8%. The like results for `CN(O)S(=O)(=O)c1ccc(Nc2ncc(-c3ccc(C(F)(F)F)cc3)o2)cn1` [Example 15, N-Hydroxy-N-methyl-5-((5-[4-(trifluoromethyl)phenyl]-1,3-oxazol-2-yl)amino) pyridine-2-sulfonamide] were, in that order, greater than 1000 nM and 46%. With `N=C(NO)c1ccc(Nc2nnc(-c3ccc(C(F)(F)F)cc3)o2)cn1` [Example 5, 5-((5-[4-(Trifluoromethyl)phenyl]-1,3,4-oxadiazol-2-yl)amino)-N-hydroxy-pyridine-2-carboximidamide], the IC50 lay within 100 to 1000 nM. As to `Cc1nc(Nc2cnc(/C(N)=N/O)c(O)c2)oc1-c1ccc(C(F)(F)F)cc1` [Example 39, N′,3-Dihydroxy-5-((4-methyl-5-(4-(trifluoromethyl)phenyl)oxazol-2-yl)amino)picolinimidamide], the IC50 was less than 1000 nM. As for `O=c1c(O)c(Nc2ccc(Nc3ncc(-c4ccc(C(F)(F)F)cc4)o3)cn2)c1=O` [Example 30, 3-Hydroxy-4-((5-((5-(4-(trifluoromethyl)phenyl)oxazol-2-yl)amino)pyridin-2-yl)amino)cyclobut-3-ene-1,2-dione], the IC50 is less than 1000 nM. On the same count and under the same terms, for `CN(O)C(=O)c1ccc(Nc2ncn(-c3ccc(C(F)(F)F)cc3)n2)cn1` [Example 25, N-Hydroxy-N-methyl-5-((1-(4-(trifluoromethyl)phenyl)-1H-1,2,4-triazol-3-yl)amino)picolinamide] the value was less than 1000 nM. On to `N/C(=N/O)c1ccc(Nc2ncc(-c3ccc(N4CC(F)(F)C4)cc3)o2)cn1` [Example 64, 5-((5-(4-(3,3-Difluoroazetidin-1-yl)phenyl)oxazol-2-yl)amino)-N′-hydroxypicolinimidamide], for which the half-inhibitory concentration (IC50) was greater than 1000 nM. Further, where the note is “Jurkat cells, 1 μM”, 1 µM produced 23% inhibition.

Turning to `O=S(=O)(NCC(O)CO)c1ccc(Nc2ncc(-c3ccc(C(F)(F)F)cc3)o2)cn1` (racemic) [Example 16, rac-N-(2,3-Dihydroxypropyl)-5-((5-[4-(trifluoromethyl)phenyl]-1,3-oxazol-2-yl)amino)pyridine-2-sulfonamide], the IC50 was greater than 1000 nM. For the same molecule, the inhibition at 1 µM (Jurkat cells, 1 μM) is 42%. As for `N/C(=N\O)c1ncc(Nc2ncc(-c3ccc(C(F)(F)F)cn3)o2)cc1F` [Example 56, 3-Fluoro-N′-hydroxy-5-((5-(5-(trifluoromethyl)pyridin-2-yl)oxazol-2-yl)amino)picolinimidamide], the “% inhibition of Des1 at 0.1 μM” value (Jurkat cells) worked out at 86%.
